In ChEMBL document CHEMBL5380820, “Design and Discovery of Novel Cyclic Peptides as EDPs-EBP Interaction Inhibitors for the Treatment of Liver Fibrosis” (J Med Chem, 2023):
Activity calls are given as the source filed them. The calls are words filed in the database; no cut-off is given here. Where a SMILES comes first, the peptide text is derived from it. Bridges are numbered along the chain shown (N, C = ends). [ ]: non-standard residue; d: D form. Aib = CC(C)(N)C(=O)O

What was measured:
LX-2 [1] = assay: Antifibrotic activity against TGF-beta induced human LX2 cells assessed as inhibition of alpha-SMA expression by measuring fluorescence intensity relative to control; assay type: functional
LX-2 [2] = assay: Antifibrotic activity against TGF-beta induced human LX2 cells assessed as inhibition of neuraminidase activity using NA fluorogenic substrate by measuring fluorescence intensity relative to control; assay type: functional
LX2 [3] = assay: Inhibition of elastin receptor complex elastin binding protein subunit in human LX2 cells assessed as inhibition of EDP induced PI3K phosphorylation treated at 10 uM for 24 hrs by Western blot analysis; assay type: cell-based
LX-2 [4] = assay: Antifibrotic activity against TGF-beta induced human LX2 cells assessed as reduction of collagen I expression measured at 10 uM for 24 hrs by measuring fluorescence intensity relative to control; assay type: functional; set-up: scale not given: the % may be the effect or the level left
LX-2 [5] = assay: Antifibrotic activity against TGF-beta induced human LX2 cells assessed as reduction of alpha-SMA expression measured at 10 uM for 24 hrs by measuring fluorescence intensity relative to control; assay type: functional; set-up: scale not given: the % may be the effect or the level left
LX2 [6] = assay: Inhibition of elastin receptor complex elastin binding protein subunit in human LX2 cells assessed as inhibition of EDP induced ERK phosphorylation treated at 10 uM for 24 hrs by Western blot analysis; assay type: cell-based
LX-2 [7] = assay: Antifibrotic activity against TGF-beta induced human LX2 cells assessed as inhibition of collagen I expression by measuring fluorescence intensity relative to control; assay type: functional
LX2 [8] = assay: Inhibition of elastin receptor complex elastin binding protein subunit in human LX2 cells assessed as inhibition of EDP induced AMPK phosphorylation treated at 10 uM for 24 hrs by Western blot analysis; assay type: cell-based
LX-2 [9] = assay: Antifibrotic activity against TGF-beta induced human LX2 cells assessed as reduction of collagen I expression measured at 10 uM for 24 hrs by measuring fluorescence intensity; assay type: functional, cell-based
LX-2 [10] = assay: Antifibrotic activity against TGF-beta induced human LX2 cells assessed as reduction of alpha-SMA expression measured at 10 uM for 24 hrs by measuring fluorescence intensity; assay type: functional, cell-based
LX-2 [11] = assay: Antifibrotic activity against TGF-beta induced human LX2 cells assessed as inhibition of neuraminidase activity using NA fluorogenic substrate measured at 10 uM for 24 hrs by measuring fluorescence intensity; assay type: functional, cell-based

Row | Molecule | inhibition (INH) (LX-2 [1]) [%] | inhibition (INH) (LX-2 [2]) [%] | inhibition (INH) (LX-2 [7]) [%] | Activity (LX-2 [10]) | further results
1 | CC(C)C[C@H](NC(=O)[C@@H]1CCCN1C(=O)[C@H](CO)NC(=O)[C@H](C)NC(=O)[C@H](CCC(=O)O)NC(=O)[C@@H]1CC(=O)N[C@@H](C(C)C)C(=O)N[C@@H](C(C)C)C(=O)NCC(=O)N[C@@H](CO)C(=O)N2CCC[C@H]2C(=O)N[C@@H](CO)C(=O)N[C@@H](C)C(=O)N[C@@H](CCC(N)=O)C(=O)N1)C(=O)O (VVGSPSAQDEASPL-OH; lactam N-9) | 39 | 62.2 | 36.1 |  | inhibition (LX2 [3]): Active; Activity (LX-2 [4]): ~50%; Activity (LX-2 [5]): ~50%; inhibition (LX2 [6]): Active; inhibition (LX2 [8]): Active
2 | CC(C)C[C@@H]1NC(=O)[C@@H]2CCCN2C(=O)[C@H](CO)NC(=O)[C@H](C)NC(=O)[C@H](CCC(=O)O)NC(=O)[C@H](CC(=O)O)NC(=O)[C@H](CCC(N)=O)NC(=O)[C@H](C)NC(=O)[C@H](CO)NC(=O)[C@@H]2CCCN2C(=O)[C@H](CO)NC(=O)CNC(=O)[C@H](C)NC(=O)[C@H](C(C)C)NC1=O (cyclo(AGSPSAQDEASPLV)) | 11.5 | 44 | 0.9 |  | 
3 | CC(C)C[C@@H]1NC(=O)[C@H](C(C)C)NC(=O)[C@H](C)NC(=O)[C@@H]2CCCN2C(=O)[C@H](CO)NC(=O)[C@H](C)NC(=O)[C@H](CCC(=O)O)NC(=O)[C@H](CC(=O)O)NC(=O)[C@H](CCC(N)=O)NC(=O)[C@H](C)NC(=O)[C@H](CO)NC(=O)[C@@H]2CCCN2C(=O)[C@H](CO)NC(=O)CNC1=O (cyclo(AQDEASPAVLGSPS)) | 20.7 | 42.2 | 1.6 |  | 
4 | CC(C)[C@@H]1NC(=O)CNC(=O)[C@@H]2CCCN2C(=O)[C@H](CO)NC(=O)[C@H](C)NC(=O)[C@H](CCC(=O)O)NC(=O)[C@H](CC(=O)O)NC(=O)[C@H](CCC(N)=O)NC(=O)[C@H](C)NC(=O)[C@H](CS)NC(=O)[C@@H]2CCCN2C(=O)[C@H](CO)NC(=O)CNC(=O)[C@H](C(C)C)NC1=O (cyclo(AQDEASPGVVGSPC)) | 5.3 | 36.4 | 12.3 |  | 
5 | CC(C)[C@@H]1NC(=O)CNC(=O)[C@@H]2CCCN2C(=O)[C@H](CO)NC(=O)[C@H](C)NC(=O)[C@H](CCC(=O)O)NC(=O)[C@H](CC(=O)O)NC(=O)[C@H](CCC(N)=O)NC(=O)[C@H](C)NC(=O)[C@H](CC(=O)O)NC(=O)[C@@H]2CCCN2C(=O)[C@H](CO)NC(=O)CNC(=O)[C@H](C(C)C)NC1=O (cyclo(AQDEASPGVVGSPD)) | 17.6 | 49.5 | 2.2 |  | 
6 | CC(C)[C@@H]1NC(=O)CNC(=O)[C@@H]2CCCN2C(=O)[C@H](CO)NC(=O)[C@H](C)NC(=O)[C@H](CCC(=O)O)NC(=O)[C@H](CC(=O)O)NC(=O)[C@H](CCC(N)=O)NC(=O)[C@H](C)NC(=O)CNC(=O)[C@@H]2CCCN2C(=O)[C@H](CO)NC(=O)CNC(=O)[C@H](C(C)C)NC1=O (cyclo(AQDEASPGVVGSPG)) | 5.3 | 2.6 | 8.5 |  | 
7 | CC(C)C[C@@H]1NC(=O)[C@H](C(C)C)NC(=O)[C@H](CC(C)C)NC(=O)[C@@H]2CCCN2C(=O)[C@H](CO)NC(=O)[C@H](C)NC(=O)[C@H](CCC(=O)O)NC(=O)[C@H](CC(=O)O)NC(=O)[C@H](CCC(N)=O)NC(=O)[C@H](C)NC(=O)[C@H](CO)NC(=O)[C@@H]2CCCN2C(=O)[C@H](CO)NC(=O)CNC1=O (cyclo(AQDEASPLVLGSPS)) |  | 27.4 |  |  | inhibition (LX-2 [1]): inactive; inhibition (LX-2 [7]): inactive
8 | CC(C)C[C@@H]1NC(=O)[C@@H]2CCCN2C(=O)[C@H](CO)NC(=O)[C@H](C)NC(=O)[C@H](CCC(=O)O)NC(=O)[C@H](CC(=O)O)NC(=O)[C@H](CCC(N)=O)NC(=O)[C@H](C)NC(=O)[C@H](CCCCN)NC(=O)[C@@H]2CCCN2C(=O)[C@H](CO)NC(=O)CNC(=O)[C@H](C(C)C)NC(=O)[C@H](C(C)C)NC1=O (cyclo(AQDEASPLVVGSPK)) | 2.8 | 30 | 1.7 |  | 
9 | CC(C)C[C@@H]1NC(=O)[C@@H]2CCCN2C(=O)[C@H](CO)NC(=O)[C@H](C)NC(=O)[C@H](CCC(=O)O)NC(=O)[C@H](CC(=O)O)NC(=O)[C@H](CCC(N)=O)NC(=O)[C@H](C)NC(=O)[C@H]([C@@H](C)O)NC(=O)[C@@H]2CCCN2C(=O)[C@H](CO)NC(=O)CNC(=O)[C@H](C(C)C)NC(=O)[C@H](C(C)C)NC1=O (cyclo(AQDEASPLVVGSPT)) | 9.9 | 27 | 13.9 |  | 
10 | CC(C)C[C@@H]1NC(=O)[C@@H]2CCCN2C(=O)[C@H](CO)NC(=O)C(C)(C)NC(=O)[C@H](CCC(=O)O)NC(=O)[C@H](CC(=O)O)NC(=O)[C@H](CCC(N)=O)NC(=O)[C@H](C)NC(=O)[C@H](CO)NC(=O)[C@@H]2CCCN2C(=O)[C@H](CO)NC(=O)CNC(=O)[C@H](C(C)C)NC(=O)[C@H](C(C)C)NC1=O (cyclo(AQDE[Aib]SPLVVGSPS)) | 5.2 | 35 |  |  | inhibition (LX-2 [7]): inactive
11 | CC(C)C[C@@H]1NC(=O)[C@@H]2CCCN2C(=O)[C@H](CO)NC(=O)[C@H](C)NC(=O)[C@H](CCC(=O)O)NC(=O)[C@H](CC(=O)O)NC(=O)[C@H](CCC(N)=O)NC(=O)C(C)(C)NC(=O)[C@H](CO)NC(=O)[C@@H]2CCCN2C(=O)[C@H](CO)NC(=O)CNC(=O)[C@H](C(C)C)NC(=O)[C@H](C(C)C)NC1=O (cyclo(ASPLVVGSPS[Aib]QDE)) | 24.1 | 75 | 26.8 |  | inhibition (LX2 [3]): Active; Activity (LX-2 [4]): ~50%; Activity (LX-2 [5]): ~50%; inhibition (LX2 [6]): Active; inhibition (LX2 [8]): Active
12 | H-AVGSPSAQDEASPL-NH2 | 3.9 | 31.2 | 6.2 |  | 
13 | H-VAGSPSAQDEASPL-NH2 | 26.4 | 60 | 28 | Active | Activity (LX-2 [9]): Active
14 | H-VVASPSAQDEASPL-NH2 |  | 26.8 | 6.9 | inactive | inhibition (LX-2 [1]): inactive; Activity (LX-2 [11]): inactive; Activity (LX-2 [9]): inactive
15 | H-VVGAPSAQDEASPL-NH2 |  | 26.7 | 5.9 | inactive | inhibition (LX-2 [1]): inactive; Activity (LX-2 [11]): inactive; Activity (LX-2 [9]): inactive
16 | H-VVGSASAQDEASPL-NH2 | 3.6 | 24.4 | 7.5 | Active | 
17 | H-VVGSPAAQDEASPL-NH2 | 33.4 | 55.3 | 34.6 |  | Activity (LX-2 [9]): Active
18 | H-VVGSPSAADEASPL-NH2 | 10.6 | 19.1 | 11.8 | inactive | Activity (LX-2 [11]): inactive; Activity (LX-2 [9]): inactive
19 | H-VVGSPSAQAEASPL-NH2 | 7.1 | 33.4 | 5.2 | Active | 
20 | H-VVGSPSAQDAASPL-NH2 |  | 20.7 | 17.6 | Active | inhibition (LX-2 [1]): inactive
21 | H-VVGSPSAQDEAAPL-NH2 | 11.3 | 28.6 | 21.7 | Active | 
22 | H-VVGSPSAQDEASPA-NH2 | 38.7 | 54.7 | 34.6 | Active | Activity (LX-2 [9]): Active
